Results published in ChEMBL document CHEMBL1201862, “PubChem BioAssay data set” (2004).
Active and inactive are the calls of the source.

Tests used:
[1] = target: T1, High affinity choline transporter 1 (Homo sapiens, UniProt Q9GZV3); assay: human choline transporter blockers, potency – cell-based, 10-point CRC, membrane potential dye, dose response (AID 588401); assay type: functional;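 also: membrane potential dye fluorescence of choline-evoked depolarization via CHT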
T1 sequence (Q9GZV3 whole entry): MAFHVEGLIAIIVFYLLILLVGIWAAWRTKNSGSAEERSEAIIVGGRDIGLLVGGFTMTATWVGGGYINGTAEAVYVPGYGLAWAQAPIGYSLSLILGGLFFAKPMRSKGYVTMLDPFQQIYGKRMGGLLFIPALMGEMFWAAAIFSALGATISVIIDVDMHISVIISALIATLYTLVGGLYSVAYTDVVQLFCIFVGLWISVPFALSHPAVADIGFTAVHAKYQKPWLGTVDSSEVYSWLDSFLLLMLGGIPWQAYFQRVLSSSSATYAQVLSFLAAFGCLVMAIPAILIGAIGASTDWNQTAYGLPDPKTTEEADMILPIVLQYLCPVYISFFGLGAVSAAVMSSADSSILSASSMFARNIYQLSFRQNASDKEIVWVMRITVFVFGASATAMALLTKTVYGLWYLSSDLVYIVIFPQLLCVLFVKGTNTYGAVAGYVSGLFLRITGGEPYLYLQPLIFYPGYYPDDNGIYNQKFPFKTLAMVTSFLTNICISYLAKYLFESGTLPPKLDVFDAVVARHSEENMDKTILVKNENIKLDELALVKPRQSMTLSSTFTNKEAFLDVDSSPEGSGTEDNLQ

[2] = CCR5-tropic HIV-1 fusion blockers – cell-based, CCR5-tropic Env, dose response (AID 2279); assay type: functional
[3] = target: T1, High affinity choline transporter 1; assay: human choline transporter blockers, potency – cell-based, 5-point CRC, membrane potential dye, dose response (AID 504840); assay type: functional
[4] = viability loss in THP-1 monocytes – THP-1 cells, cytotoxicity control for Vif-APOBEC3G degradation inhibitor project, dose response (AID 1117359); assay type: functional; conditions: THP-1
[5] = target: NS3 (Hepatitis C virus, UniProt A3EZJ3); assay: PubChem AID 2173; design: species or system Hepacivirus hominis
[6] = target: Induced myeloid leukemia cell differentiation protein Mcl-1 (Homo sapiens, UniProt Q07820); assay type: functional
[7] = target: T2, Mannose-6-phosphate isomerase (Homo sapiens, UniProt P34949); assay: MPI inhibition at elevated mannose 6-phosphate – biochemical, fluorescence intensity, high mannose 6-phosphate, primary screen (AID 1220)
T2 sequence (P34949 whole entry): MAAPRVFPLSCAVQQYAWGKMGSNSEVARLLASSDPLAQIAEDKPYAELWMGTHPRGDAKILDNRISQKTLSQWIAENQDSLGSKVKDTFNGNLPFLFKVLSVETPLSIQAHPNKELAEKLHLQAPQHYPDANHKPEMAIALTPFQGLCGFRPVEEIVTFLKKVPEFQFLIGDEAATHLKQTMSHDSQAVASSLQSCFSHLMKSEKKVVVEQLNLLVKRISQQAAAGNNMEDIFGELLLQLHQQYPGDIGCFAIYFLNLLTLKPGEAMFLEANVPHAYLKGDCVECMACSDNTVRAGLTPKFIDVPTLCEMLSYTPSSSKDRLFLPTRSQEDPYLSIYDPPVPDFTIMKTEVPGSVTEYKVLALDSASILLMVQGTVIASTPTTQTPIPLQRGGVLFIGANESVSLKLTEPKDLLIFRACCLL

[8] = mitochondrial function rescue without frataxin homolog – Friedreich's ataxia, plus single-dose screen, dose response (AID 1465); assay type: functional;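 also: yeast depleted of Yfh1p frataxin homolog grown on glycerol needing respiration; WST-1 tetrazolium dye reduction as measure of cellular dehydrogenase metabolic activity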
[9] = target: Peroxisome proliferator-activated receptor gamma/Nuclear receptor coactivator 2 (Homo sapiens, UniProt P37231); assay type: functional;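 also: agonist potency for raising coactivator recruitment to the receptor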
[10] = target: Peroxisome proliferator-activated receptor gamma/Nuclear receptor coactivator 1 (Homo sapiens, UniProt P37231); assay type: functional;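 also: agonist potency as compounds enhance coactivator SRC-1 recruitment to PPARgamma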
[11] = target: Peroxisome proliferator-activated receptor gamma/Nuclear receptor coactivator 3 (Homo sapiens, UniProt P37231); assay type: functional;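 also: agonist potency for raising coactivator recruitment to the receptor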
[12] = target: DNA (cytosine-5)-methyltransferase 1 (Homo sapiens, UniProt P26358); assay: inhibition of DNA methylation by DNMT1 – biochemical, fluorescent molecular beacon, confirmation (AID 602386); assay type: functional
[13] = target: T3, Estrogen receptor (Homo sapiens, UniProt P03372); assay: ERα coactivator recruitment enhancers – biochemical, TR-FRET, ERα LBD, dose response (AID 737)
T3 sequence (P03372 whole entry): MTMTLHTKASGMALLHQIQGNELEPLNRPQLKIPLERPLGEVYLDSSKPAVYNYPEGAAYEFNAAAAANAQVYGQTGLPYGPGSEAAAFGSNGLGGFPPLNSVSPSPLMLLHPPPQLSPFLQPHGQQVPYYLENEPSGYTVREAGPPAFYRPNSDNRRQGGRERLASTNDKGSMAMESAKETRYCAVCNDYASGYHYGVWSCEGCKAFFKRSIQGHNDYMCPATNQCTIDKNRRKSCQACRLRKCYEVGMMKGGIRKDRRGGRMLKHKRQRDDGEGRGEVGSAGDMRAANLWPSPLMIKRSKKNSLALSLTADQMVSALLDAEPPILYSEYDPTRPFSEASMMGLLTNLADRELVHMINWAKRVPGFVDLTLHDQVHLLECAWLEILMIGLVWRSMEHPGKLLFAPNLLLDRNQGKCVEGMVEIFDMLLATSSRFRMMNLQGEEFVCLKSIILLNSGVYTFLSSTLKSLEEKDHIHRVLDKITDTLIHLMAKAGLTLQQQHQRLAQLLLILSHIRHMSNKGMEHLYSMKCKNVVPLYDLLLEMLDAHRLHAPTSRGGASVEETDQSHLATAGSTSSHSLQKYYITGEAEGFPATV

[14] = alpha-synuclein stem-loop luciferase translation blockers – H4 neuroglioma cells, luminescence, confirmation (AID 1988); assay type: functional, cell-based
[15] = tested on: BJ; assay: cells; assay type: functional, cell-based; conditions: Homo sapiens
[16] = IC50 of Artemis nuclease activity blockers – biochemical, fluorescence intensity, dose response (AID 720701); assay type: functional;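 also: Artemis endonuclease enzyme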
[17] = target: Mothers against decapentaplegic homolog 3 (Homo sapiens, UniProt P84022); assay: inhibitors of SMAD-driven TGF-beta signaling – dose response (AID 715); assay type: functional
[18] = tested on: BJ; assay: BJ-TERT-LT-ST fibroblast viability loss – cell-based, RAS-independent, luminescence, dose response (AID 1935); assay type: functional; conditions: Homo sapiens;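 also: BJ fibroblasts immortalized with TERT plus LT and ST oncogenes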
[19] = DRD fibroblast viability loss – cell-based, non-viral oncogenic, luminescence, dose response (AID 1934); assay type: functional; conditions: Homo sapiens
[20] = target: T4, Apoptotic protease-activating factor 1 (Homo sapiens, UniProt O14727); assay type: functional
T4 sequence (O14727 whole entry): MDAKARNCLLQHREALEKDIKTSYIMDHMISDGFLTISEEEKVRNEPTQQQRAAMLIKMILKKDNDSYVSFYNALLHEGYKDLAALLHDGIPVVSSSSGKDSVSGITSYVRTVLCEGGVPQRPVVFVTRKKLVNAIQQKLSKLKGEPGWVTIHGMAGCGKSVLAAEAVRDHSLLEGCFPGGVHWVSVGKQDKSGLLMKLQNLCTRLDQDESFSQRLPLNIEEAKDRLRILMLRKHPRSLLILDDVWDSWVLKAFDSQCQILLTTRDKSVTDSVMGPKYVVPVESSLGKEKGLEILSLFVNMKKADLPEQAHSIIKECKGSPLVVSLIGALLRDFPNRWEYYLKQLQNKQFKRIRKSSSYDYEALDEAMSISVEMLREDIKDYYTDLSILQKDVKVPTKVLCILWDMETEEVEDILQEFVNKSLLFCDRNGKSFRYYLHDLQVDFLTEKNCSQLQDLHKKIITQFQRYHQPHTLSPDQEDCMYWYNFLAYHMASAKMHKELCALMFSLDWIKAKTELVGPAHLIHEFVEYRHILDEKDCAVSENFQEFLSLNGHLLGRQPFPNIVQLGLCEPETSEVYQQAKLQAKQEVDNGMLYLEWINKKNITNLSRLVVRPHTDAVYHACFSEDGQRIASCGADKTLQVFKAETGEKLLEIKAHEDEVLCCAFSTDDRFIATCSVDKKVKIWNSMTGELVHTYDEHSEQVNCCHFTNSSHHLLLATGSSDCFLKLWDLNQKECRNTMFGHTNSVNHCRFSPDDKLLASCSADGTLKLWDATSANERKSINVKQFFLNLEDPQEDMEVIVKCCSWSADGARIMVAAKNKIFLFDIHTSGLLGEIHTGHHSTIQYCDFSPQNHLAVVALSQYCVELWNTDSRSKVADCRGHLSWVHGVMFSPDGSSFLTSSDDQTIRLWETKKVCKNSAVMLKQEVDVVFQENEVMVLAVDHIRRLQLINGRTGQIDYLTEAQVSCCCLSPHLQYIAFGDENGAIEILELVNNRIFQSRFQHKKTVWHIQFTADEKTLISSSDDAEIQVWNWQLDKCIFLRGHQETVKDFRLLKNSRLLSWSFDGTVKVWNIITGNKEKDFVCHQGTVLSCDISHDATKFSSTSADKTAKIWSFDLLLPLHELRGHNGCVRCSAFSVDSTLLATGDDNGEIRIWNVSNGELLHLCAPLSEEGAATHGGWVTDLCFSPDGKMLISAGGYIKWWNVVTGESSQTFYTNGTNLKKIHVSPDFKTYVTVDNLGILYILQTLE

[21] = tested on: BJ; assay: BJ-TERT fibroblast viability loss – cell-based, RAS-independent, luminescence, dose response (AID 1933); assay type: functional; conditions: Homo sapiens
[22] = target: Mitochondrial peptide methionine sulfoxide reductase (Bos taurus, UniProt P54149); assay type: functional;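 also: absorbance read-out, biochemical high-throughput dose-response screen for MsrA inhibitors, confirmatory; recombinant bovine MsrA coupled to E. coli TrxB with NADPH and selenocystamine; potency is for inhibitors of MsrA activity on DMSO substrate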
[23] = target: Luciferin 4-monooxygenase (Photinus pyralis, UniProt P08659); assay: Counter Screen for Luciferase-based Assay Positives. [Related pubchem assays: 620, 618, 411 ]
[24] = tested on: HT-1080; assay: HT1080 cell viability loss – fluorescence readout (AID 620); assay type: functional, cell-based; conditions: Homo sapiens
[25] = target: T5, Hexokinase HKDC1 (Homo sapiens, UniProt Q2TB90); assay: inhibition of HKDC1 glucose phosphorylation – biochemical, W721R variant, dose response (AID 504729); assay type: functional
T5 sequence (Q2TB90 whole entry): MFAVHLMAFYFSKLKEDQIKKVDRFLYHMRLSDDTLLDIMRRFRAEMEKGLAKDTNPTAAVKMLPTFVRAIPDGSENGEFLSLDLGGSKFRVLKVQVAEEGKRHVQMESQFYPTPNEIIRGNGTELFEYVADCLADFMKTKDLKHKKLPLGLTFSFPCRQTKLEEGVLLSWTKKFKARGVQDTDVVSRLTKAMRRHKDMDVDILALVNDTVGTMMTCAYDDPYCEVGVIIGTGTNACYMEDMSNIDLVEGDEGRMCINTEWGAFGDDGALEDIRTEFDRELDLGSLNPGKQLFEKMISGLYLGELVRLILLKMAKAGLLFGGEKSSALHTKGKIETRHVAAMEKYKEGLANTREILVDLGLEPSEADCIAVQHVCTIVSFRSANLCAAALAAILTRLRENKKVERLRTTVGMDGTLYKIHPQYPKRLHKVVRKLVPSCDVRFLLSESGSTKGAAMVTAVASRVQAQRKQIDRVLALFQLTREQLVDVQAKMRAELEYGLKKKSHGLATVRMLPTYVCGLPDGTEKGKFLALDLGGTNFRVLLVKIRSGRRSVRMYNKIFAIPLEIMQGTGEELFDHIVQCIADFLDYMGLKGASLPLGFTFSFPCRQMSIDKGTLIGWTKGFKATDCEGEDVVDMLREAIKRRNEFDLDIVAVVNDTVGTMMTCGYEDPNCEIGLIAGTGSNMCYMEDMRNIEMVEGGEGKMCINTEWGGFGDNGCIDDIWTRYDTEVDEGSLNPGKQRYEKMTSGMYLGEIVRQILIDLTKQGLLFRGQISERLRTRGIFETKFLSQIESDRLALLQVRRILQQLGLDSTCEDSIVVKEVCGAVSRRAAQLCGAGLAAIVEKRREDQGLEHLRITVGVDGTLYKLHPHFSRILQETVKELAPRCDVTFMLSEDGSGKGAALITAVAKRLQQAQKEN

[26] = target: Tyrosyl-DNA phosphodiesterase 2 (Homo sapiens, UniProt O95551); assay: potency against TDP2 phosphodiesterase activity – biochemical, epi absorbance, IC50, dose response (AID 743297)
[27] = luciferase reporter signal suppression in cells – H4 neuroglioma cells, luminescence, dose response (AID 1990); assay type: functional, cell-based
[28] = Luminescence Cell-Based Dose Response HTS to Identify Inhibitors of 5'UTR Stem-Loop Driven Prion Protein mRNA Translation in H4 Neuroglioblastoma Cells. [Related pubchem assays: 1827 (Project Summary), 1813 (Primary HTS)]; assay type: functional

Sequence of Luciferin 4-monooxygenase (P08659 whole entry): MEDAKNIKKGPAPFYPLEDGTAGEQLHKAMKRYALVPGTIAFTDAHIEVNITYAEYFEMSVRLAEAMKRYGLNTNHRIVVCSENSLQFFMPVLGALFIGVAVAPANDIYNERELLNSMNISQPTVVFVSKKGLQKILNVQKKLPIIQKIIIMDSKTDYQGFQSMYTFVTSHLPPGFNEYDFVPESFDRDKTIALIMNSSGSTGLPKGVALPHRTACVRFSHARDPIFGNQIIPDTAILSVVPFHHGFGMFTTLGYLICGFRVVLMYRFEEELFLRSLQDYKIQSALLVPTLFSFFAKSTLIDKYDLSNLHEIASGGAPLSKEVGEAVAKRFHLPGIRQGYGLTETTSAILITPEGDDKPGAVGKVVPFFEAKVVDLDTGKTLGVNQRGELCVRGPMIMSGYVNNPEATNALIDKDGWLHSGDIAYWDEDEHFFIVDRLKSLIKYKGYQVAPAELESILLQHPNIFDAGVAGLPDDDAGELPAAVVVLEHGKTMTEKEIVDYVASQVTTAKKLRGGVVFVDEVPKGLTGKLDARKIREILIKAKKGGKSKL
Sequence of Mothers against decapentaplegic homolog 3 (P84022 whole entry): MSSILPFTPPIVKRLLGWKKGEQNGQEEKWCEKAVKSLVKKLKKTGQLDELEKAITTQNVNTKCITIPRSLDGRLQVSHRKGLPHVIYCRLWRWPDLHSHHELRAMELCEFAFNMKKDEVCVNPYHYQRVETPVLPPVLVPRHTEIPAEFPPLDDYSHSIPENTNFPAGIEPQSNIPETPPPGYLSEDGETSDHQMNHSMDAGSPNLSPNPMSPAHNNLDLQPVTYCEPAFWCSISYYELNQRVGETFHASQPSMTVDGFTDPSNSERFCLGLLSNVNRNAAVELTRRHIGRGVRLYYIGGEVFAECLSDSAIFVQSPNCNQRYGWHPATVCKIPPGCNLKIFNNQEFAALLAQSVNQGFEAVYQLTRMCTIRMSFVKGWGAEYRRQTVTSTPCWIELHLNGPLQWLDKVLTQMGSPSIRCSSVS
Sequence of DNA (cytosine-5)-methyltransferase 1 (P26358 whole entry, the tested form may be a part): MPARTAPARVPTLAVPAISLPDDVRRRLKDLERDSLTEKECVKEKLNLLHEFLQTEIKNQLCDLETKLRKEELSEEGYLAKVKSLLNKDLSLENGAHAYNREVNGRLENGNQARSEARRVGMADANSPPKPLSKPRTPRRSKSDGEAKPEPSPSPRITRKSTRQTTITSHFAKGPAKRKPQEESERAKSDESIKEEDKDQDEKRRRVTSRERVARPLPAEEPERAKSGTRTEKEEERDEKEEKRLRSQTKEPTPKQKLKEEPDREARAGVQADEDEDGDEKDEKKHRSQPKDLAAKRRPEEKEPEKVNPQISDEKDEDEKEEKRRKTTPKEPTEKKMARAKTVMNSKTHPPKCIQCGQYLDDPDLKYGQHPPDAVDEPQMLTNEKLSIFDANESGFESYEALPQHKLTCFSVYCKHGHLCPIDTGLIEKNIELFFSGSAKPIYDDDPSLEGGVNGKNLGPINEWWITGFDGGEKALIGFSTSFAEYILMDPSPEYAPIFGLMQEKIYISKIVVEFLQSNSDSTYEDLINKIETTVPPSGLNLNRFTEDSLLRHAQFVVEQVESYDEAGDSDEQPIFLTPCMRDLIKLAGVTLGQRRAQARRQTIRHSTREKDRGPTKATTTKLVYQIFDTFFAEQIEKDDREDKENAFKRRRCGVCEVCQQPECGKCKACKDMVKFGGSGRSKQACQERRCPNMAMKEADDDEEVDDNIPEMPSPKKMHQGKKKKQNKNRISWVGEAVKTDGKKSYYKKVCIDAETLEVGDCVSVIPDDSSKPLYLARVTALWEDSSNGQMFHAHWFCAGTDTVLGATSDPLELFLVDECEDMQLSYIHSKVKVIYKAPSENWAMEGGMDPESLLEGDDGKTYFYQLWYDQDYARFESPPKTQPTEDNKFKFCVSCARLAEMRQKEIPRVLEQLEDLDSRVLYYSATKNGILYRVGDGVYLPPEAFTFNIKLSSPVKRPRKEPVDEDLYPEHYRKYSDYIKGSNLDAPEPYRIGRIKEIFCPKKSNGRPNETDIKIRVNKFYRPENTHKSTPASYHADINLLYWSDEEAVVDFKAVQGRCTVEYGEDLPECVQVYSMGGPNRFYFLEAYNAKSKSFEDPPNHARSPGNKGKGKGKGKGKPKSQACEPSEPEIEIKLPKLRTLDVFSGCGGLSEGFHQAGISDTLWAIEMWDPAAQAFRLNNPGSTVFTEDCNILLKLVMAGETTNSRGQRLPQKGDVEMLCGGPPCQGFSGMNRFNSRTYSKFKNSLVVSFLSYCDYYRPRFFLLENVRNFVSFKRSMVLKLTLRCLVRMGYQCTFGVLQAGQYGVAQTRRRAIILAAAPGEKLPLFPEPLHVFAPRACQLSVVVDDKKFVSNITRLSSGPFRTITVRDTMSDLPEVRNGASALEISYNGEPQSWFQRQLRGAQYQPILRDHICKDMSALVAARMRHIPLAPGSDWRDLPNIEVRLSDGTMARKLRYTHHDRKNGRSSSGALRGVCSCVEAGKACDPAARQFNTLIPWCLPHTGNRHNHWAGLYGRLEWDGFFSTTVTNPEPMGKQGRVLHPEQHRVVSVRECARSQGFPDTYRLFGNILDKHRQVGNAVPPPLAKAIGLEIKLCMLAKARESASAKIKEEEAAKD
Sequence of Mitochondrial peptide methionine sulfoxide reductase (P54149 whole entry): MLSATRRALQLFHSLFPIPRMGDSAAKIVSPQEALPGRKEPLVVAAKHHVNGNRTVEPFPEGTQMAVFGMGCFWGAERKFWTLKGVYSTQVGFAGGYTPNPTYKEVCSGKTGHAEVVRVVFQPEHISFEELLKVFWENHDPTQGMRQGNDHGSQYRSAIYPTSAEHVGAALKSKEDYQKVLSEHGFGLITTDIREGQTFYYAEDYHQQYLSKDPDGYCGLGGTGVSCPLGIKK
Sequence of Tyrosyl-DNA phosphodiesterase 2 (O95551 whole entry): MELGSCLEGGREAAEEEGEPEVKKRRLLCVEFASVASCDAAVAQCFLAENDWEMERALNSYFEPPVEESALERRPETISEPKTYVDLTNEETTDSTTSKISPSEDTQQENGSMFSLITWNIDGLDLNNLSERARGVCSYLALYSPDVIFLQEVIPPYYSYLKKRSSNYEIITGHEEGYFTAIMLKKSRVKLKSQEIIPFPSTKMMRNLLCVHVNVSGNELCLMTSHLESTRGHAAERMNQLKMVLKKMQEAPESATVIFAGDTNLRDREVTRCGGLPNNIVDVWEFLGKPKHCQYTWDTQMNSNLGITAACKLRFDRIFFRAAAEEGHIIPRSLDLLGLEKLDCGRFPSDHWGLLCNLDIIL
Sequence of NS3 (A3EZJ3 whole entry): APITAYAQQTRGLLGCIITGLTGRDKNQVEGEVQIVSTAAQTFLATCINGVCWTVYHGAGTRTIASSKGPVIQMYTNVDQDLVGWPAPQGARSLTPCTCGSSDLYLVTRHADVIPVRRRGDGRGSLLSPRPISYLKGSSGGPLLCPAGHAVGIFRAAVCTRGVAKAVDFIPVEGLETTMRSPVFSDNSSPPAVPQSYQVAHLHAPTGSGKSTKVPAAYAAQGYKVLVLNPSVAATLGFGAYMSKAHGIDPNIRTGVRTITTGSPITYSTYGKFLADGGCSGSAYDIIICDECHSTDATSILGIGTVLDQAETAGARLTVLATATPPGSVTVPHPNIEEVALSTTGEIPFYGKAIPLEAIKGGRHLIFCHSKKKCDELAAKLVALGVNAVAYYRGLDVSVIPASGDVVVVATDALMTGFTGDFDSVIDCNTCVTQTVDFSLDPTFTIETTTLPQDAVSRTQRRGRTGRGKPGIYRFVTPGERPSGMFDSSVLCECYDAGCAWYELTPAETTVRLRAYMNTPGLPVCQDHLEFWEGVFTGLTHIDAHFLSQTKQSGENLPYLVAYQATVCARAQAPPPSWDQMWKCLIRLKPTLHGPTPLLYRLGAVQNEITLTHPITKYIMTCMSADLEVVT
Sequence of Induced myeloid leukemia cell differentiation protein Mcl-1 (Q07820 whole entry): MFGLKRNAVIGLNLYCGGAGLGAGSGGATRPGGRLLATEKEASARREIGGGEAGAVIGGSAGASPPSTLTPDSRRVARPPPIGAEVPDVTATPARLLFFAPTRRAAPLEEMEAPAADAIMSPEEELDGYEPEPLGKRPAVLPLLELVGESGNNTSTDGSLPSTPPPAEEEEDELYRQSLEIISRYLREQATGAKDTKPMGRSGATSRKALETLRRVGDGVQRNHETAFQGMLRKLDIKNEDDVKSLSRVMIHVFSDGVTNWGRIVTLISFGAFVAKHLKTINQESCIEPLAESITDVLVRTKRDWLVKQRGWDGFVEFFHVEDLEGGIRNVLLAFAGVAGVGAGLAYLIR

## CCS(=O)(=O)C1=NSC2=NC(=O)/C(=C\c3ccc(OS(=O)(=O)c4ccccc4)cc3)C(=N)N21
[1]
  IC50: 8.91 µM (active)
[2]
  IC50: 36.5 µM (active)
[3]
  IC50: 5.22 µM (active)

## CCN(CC)S(=O)(=O)c1cccc(C(=O)N/N=C/c2ccc(O)c(O)c2O)c1
[4]
  CC50: > 40 µM (active)
[5]
  IC50: 5.31 µM (active)
[6]
  IC50: 7.33 µM (active)
[7]
  IC50: 5.36 µM (active)
[8]
  EC50: > 100 µM (active)

## O=C(NC(=S)Nc1ccccc1)c1ccc(Br)o1
[9]
  EC50: 16 µM (not active)
[10]
  EC50: 17.6 µM (not active)
[11]
  EC50: 19.9 µM (not active)

## O=C(CSc1nc2c(cnn2-c2ccccc2)c(=O)[nH]1)c1ccc(Cl)cc1
[12]
  IC50: 9.12 µM (active)
[13]
  EC50: 9.92 µM (active)

## O=C1C(N2CCOCC2)=C(n2nnc3ccccc32)C(=O)c2ccccc21
[14]
  EC50: > 120 µM (not active)
[15]
  EC50: 5.06 µM (active)
[16]
  IC50: 7.75 µM (active)
[17]
  IC50: 22 µM (active)
[18]
  EC50: > 150 µM (inconclusive)
[19]
  EC50: 10.5 µM (active)
[20]
  IC50: 4.02 µM (active)
[21]
  EC50: 8.79 µM (active)
[22]
  IC50: 9.33 µM (active)
[23]
  EC50: 1.63 µM (active)
[24]
  EC50: 12.3 µM (active)
[25]
  IC50: 7.01 µM (active)
[26]
  IC50: 10 µM (inactive)
[27]
  EC50: > 120 µM (not active)
[28]
  EC50: 8.93 µM (active)
